In ChEMBL document CHEMBL2440116, “Structure-activity relationships of 2-aminothiazoles effective against Mycobacterium tuberculosis” (Bioorg Med Chem, 2013):

Tested on: Mycobacterium tuberculosis
Test: Induction of resistant in Mycobacterium tuberculosis H37Rv in Middlebrook 7H9 broth with glucose at 10 times MIC after 4 to 5 weeks relative to control
Type: functional

O=C(Nc1nc(-c2ccccn2)cs1)c1cccc(Br)c1
fold change (FC): 2
